According to patent EP4516108A1, “METHOD FOR PRESERVING A BAKERY PRODUCT USING CHITOSAN AS INGREDIENT” (Mauri Technology B.V., priority 2023, dated 2025):

Legend:
[1] = cited from earlier work
P. paneum = experiment: Accelerated shelf-life testing (ASLT): time of appearance (TOA) and growth pattern of mould on inoculated breadcrumbs; type: cell-based, Penicillium paneum; details: Example 1, tin breads, ±500 spores, around 21 °C; CalPro 0.3% FWB, chitosan 1% FWB (about 1 wt.%)
A. niger = experiment: Accelerated shelf-life testing (ASLT): time of appearance (TOA) of mould on inoculated breadcrumbs
Experimental: Breads were made by mixing the dough ingredients from Table 1. The wt.% for several ingredients are given based on flour weight (Flour Weight Based, FWB). For the prepared recipes the difference with total dry weight is insubstantial. The following breads were prepared: a control without any preservatives, a reference containing 0.3% flour weight based (FWB) calcium propionate (CalPro), and a bread containing 1% chitosan (KitoZyme, Belgium) with number average MW of 15 kDa and degree of deacetylation (DDA) of 70%. […] Ingredients were mixed using a spiral mixer for 10 minutes. Afterwards the dough for each trial was divided into three pieces of 520 g, rounded manually, and placed into bread tins. The dough pieces were placed in a proofing cabinet to rise at 40 °C and 80% relative humidity until they reach similar height (fermentation time between 60-70 min). The breads were baked for 22 minutes in a deck oven at 260 (bottom) and 230 (top) °C.
Following baking, the breads were cooled in a HEPA-filtered chamber for 90 min. One bread was used for pH measurement and two breads were subjected to ASLT.
To perform ASLT, the remaining two breads were sliced to 13 mm slices. The crumb (inner part of breads) of three random slices from each bread were cut out using a cookie cutter (3.2 cm diameter) and placed in sterile 6-well plates (2x breads × 3 slices). Two 6-well plates were prepared per bread type. Each bread piece in a 6-well plate was inoculated with 3 aliquots of ±500 spores (20 pL) of either A. niger or P. paneum. Therefore, 18 spots of each mould were inoculated per trial (6 bread piece × 3 aliquots). Freeze-dried spores were used in all experiments. The inoculated breads incubated at room temperature of around 21 °C untill visible mould appearance. The appearance of the moulds was imaged by taking photographs. The images were inspected visually, and the TOA was defined as mould appearance in hours after mould inoculation.
Due to limited availability of the high MW chitosan samples, ASLT was performed at small scale in bread rolls. […]

For C/C=C/C=C/C(=O)O [sorbic acid], the pKa [1] is given as “about 4.76”.

In the case of CC(O)C(=O)O (stereo not drawn) [lactic acid], the pKa [1] is listed as “about 3.85”.

With CCC(=O)[O-].CCC(=O)[O-].[Ca+2] [CalPro, calcium propionate] the “increased TOA of P. paneum compared to control bread without preservatives” value (P. paneum) was 17%, the “effectiveness against A. niger, CalPro compared to chitosan” value (A. niger; CalPro 0.3% FWB vs chitosan 1% FWB) was “more effective” and the “TOA of A. niger improved compared to control without preservative” value (A. niger; CalPro 0.3% FWB, FWF 0.78% FWB, chitosan >0.5 wt.%, alone or in combination) was “approximately 50%”. The “increased TOA of A. niger compared to control bread without preservatives” value (A. niger; Example 1, tin breads, ±500 spores, around 21 °C, CalPro 0.3% FWB, chitosan 1% FWB (about 1 wt.%)) was 80%.
